According to ChEMBL document CHEMBL1143432, “Towards novel S-DABOC inhibitors: synthesis, biological investigation, and molecular modeling studies” (2008):

Assays:
[1] = target: Human immunodeficiency virus type 1 reverse transcriptase (Human immunodeficiency virus 1) (UniProt Q72547); assay: Inhibition of wild type HIV1 reverse transcriptase
[2] = test system: Human immunodeficiency virus 1; assay: Antiviral activity against drug-resistant HIV1 with reverse transcriptase K103N mutant infected in human MT4 cells assessed as virus-induced cell death by MTT method; type: functional; settings: Human immunodeficiency virus 1, MT4; read-out: ED50 (the source's name)
[3] = test system: Human immunodeficiency virus 1; assay: Antiviral activity against wild type HIV1 NL4-3 infected in human MT4 cells assessed as virus-induced cell death by MTT method; type: functional; settings: Human immunodeficiency virus 1, NL4-3, MT4; read-out: ED50 (the source's name)
[4] = test system: Human immunodeficiency virus 1; assay: Antiviral activity against drug-resistant HIV1 with reverse transcriptase Y181C mutant infected in human MT4 cells assessed as virus-induced cell death by MTT method; type: functional; settings: Human immunodeficiency virus 1, MT4; read-out: ED50 (the source's name)
[5] = Ratio of ED50 for drug resistant HIV1 with reverse transcriptase K103N mutant to wild type HIV1 NL4-3; type: functional
[6] = Ratio of ED50 for drug resistant HIV1 with reverse transcriptase Y181C mutant to wild type HIV1 NL4-3; type: functional

Compound | ID50 [1] [µM] | EC50 [2] [µM] | EC50 [3] [µM] | EC50 [4] [µM] | Ratio EC50 [5] | Ratio EC50 [6]
CSc1nc(N)c(C)c(C(Cl)c2ccccc2)n1 (centres undefined) | > 20 | > 25 | 12 | > 25 | – | –
CSc1nc(N)c(C)c(/C(=N\O)c2ccccc2)n1 | > 20 | > 25 | 10.5 | > 25 | – | –
CSc1nc(N)c(C)c(C(=O)c2cccc(F)c2)n1 | 0.2 | 0.695 | 0.034 | 0.779 | 20 | 23
COc1ccc(CSc2nc(Cc3c(Cl)cccc3Cl)c(C)c(=O)[nH]2)cc1 | – | 4.7 | 0.007 | – | 671 | –
CSc1nc(N)c(C)c(C(=O)c2ccccc2)n1 | 1.9 | 1.67 | 0.06 | 1.71 | 28 | 28
CSc1nc(N)c(C)c(C(=O)CCc2ccccc2)n1 | > 20 | > 25 | > 25 | > 25 | – | –
CSc1nc(N)c(C)c(C(O)c2ccccc2)n1 (centres undefined) | 7.7 | > 25 | > 25 | > 25 | – | –
CSc1nc(N)c(C)c(C(=O)Cc2ccccc2)n1 | > 20 | > 25 | > 25 | > 25 | – | –
Cc1ccnc2c1NC(=O)c1cccnc1N2C1CC1 [NEVIRAPINE] | – | 0.68 | 0.04 | > 2 | 17 | –
Cc1c(N)nc(S(C)(=O)=O)nc1C(=O)c1ccccc1 | 16 | 19.1 | 0.44 | 10.4 | 43 | 23
O=C1Nc2ccc(Cl)cc2[C@@](C#CC2CC2)(C(F)(F)F)O1 [EFAVIRENZ] | – | 0.133 | – | 0.008 | – | –
CSc1nc(N)c(C)c(C(=O)c2cccc3ccccc23)n1 | 2.7 | > 19.4 | > 19.4 | > 19.4 | – | –
CSc1nc(N)c(C)c(C(F)c2ccccc2)n1 (centres undefined) | > 20 | > 25 | > 25 | > 25 | – | –
CNc1nc(N)c(C)c(C(=O)c2ccccc2)n1 | > 20 | > 25 | 3.4 | > 25 | – | –
